# Measured values from US5661160A, “Substituted pyrrolidin-3-yl-alkyl-piperidines” (Merrell Pharmaceuticals Inc., priority 1995, dated 1997).
# Where a name gives a salt, the structure may show the parent alone.
# Legend:
# NK2 receptor = assay: Antagonism of NKA aerosol-induced respiratory effects in conscious guinea pigs; assay type: in vivo, guinea pig; settings: dose dependent
# Description: (§1) In vivo experiments were performed using male Duncan Hartley guinea pigs (250-350 g). Changes in conscious breathing patterns were monitored in four animals simultaneously using modified whole body plethysmography consisting of four small plexiglass boxes each connected to a reference box via Validyne DP 45-16 differential pressure transducers. The 4 boxes were equipped with an air supply line (also used for aerosol delivery) and an exhaust air line. Supply and exhaust lines were of the same length and narrow bore and arose from a common supply chamber and vented to a common exhaust chamber. This system was used to ensure that fluctuations in supply air and atmospheric pressure would remain in phase and be eliminated from the net signal by the differential pressure transducers. The analog pressure signals were digitalized via a Data Translation DT2821 A to D board. Data were collected at a rate of 100 samples/second/animal. Each cycle of pressure change was analyzed using the following parameters: rising and falling slope determined between minimum and maximum pressures, the ratio of rising over falling slope, and the magnitude of the change between initial trough pressure and peak cycle pressure. Using these values (and observing the animals) the pressure cycles were characterized into normal breaths, forced exhalations (apparent by abdominal heaving), significant respiratory events (SREs; usually coughs, less often sneezes or gasps which were characterized by transient, extremely large pressure increases which were distinguishable from noise) and movement/noise with a PCAT 286 running a System V UNIX operating system. Dyspnea was defined as a significant, sustained increase in plethysmograph pressure which was associated with an observable shift to labored breathing in the animal.
# During the course of a typical experiment in which airway responsiveness to various bronchoconstricting agents was examined, aerosols were delivered for 19 min (0.33 ml/min) using a DeVilbiss Ultraneb 99 ultrasonic nebulizer and animals monitored during this time. […]
# NK1 receptors = target: T1, NK1 receptors (Cavia porcellus, UniProt P30547); assay: Antagonism of SP-induced plasma protein extravasation in guinea pig trachea; assay type: in vivo; settings: for relative potency as NK-1 receptor antagonists (in words): Example 3 versus its (+)-enantiomer Example 20A
# T1 construct: measuring Evans Blue dye accumulation in guinea pig trachea; from tissue; host or cells: guinea pig trachea and primary bronchi, whole animal in vivo
# Description: SP-induced protein leakage through postcapillary venules was assessed by measuring Evans Blue dye accumulation in guinea pig trachea. Animals were anesthetized with pentobarbital then injected with Evans Blue dye (20 mg/kg, i.v., prepared in 0.9% NaCl solution). One minute after dye administration, the antagonist was administered (i.v.) followed by SP (0.3 nmole/kg, i.v.) and, after 5 min, excess dye removed from the circulation by transcardiac perfusion with 50 ml 0.9% NaCl solution. The trachea and primary bronchi were removed, blotted dry and weighed. Dye quantitation was performed spectrophotometrically ([…]) after extracting tissues in formamide for 24 hr at 50° C. Values were subtracted from background (dye only, no agonist). ED50 (dose of compound which inhibits SP-induced plasma protein extravasation by 50%) was calculated from linear regression analysis.
# NK1 and NK2 receptors [1] = assay: Antagonism of capsaicin aerosol-induced respiratory effects in conscious guinea pigs, intravenous; assay type: in vivo, guinea pig; settings: for SRE NUMBER: coughs/gasps during 19 min capsaicin exposure, mean and SEM; for effect on capsaicin-induced respiratory effects (in words): i.v.
# Description: as §1
# (§2) During the course of a typical experiment in which airway responsiveness to various bronchoconstricting agents was examined, aerosols were delivered for 19 min (0.33 ml/min) using a DeVilbiss Ultraneb 99 ultrasonic nebulizer and animals monitored during this time. Prior to nebulization, 1 min of resting breathing was collected to establish a baseline pressure. […] The vehicle for nebulization of all bronchoconstrictive agents was phosphate buffered saline (pH 7.4) which elicited no respiratory effects itself. Putative tachykinin antagonists were administered either (i.v.) 20 min prior to onset of aerosol exposure or orally 1 hour prior to onset (to guinea pigs after an overnight fast).
# (§3) Capsaicin aerosol is known to promote release of the tachykinins SP and NKA from sensory nerves in the airways of guinea pigs which may then act upon NK1 and NK2 receptors, respectively to elicit respiratory effects.
# [2] = target: T2, NK2 receptor (SKLKB82#3 cells) (Bos taurus, UniProt P05363); assay: Antagonism of NK2 receptor mediated (NKA-induced) phosphatidylinositol turnover in SKLKB82#3 cells; assay type: cell-based; settings: for NK-2 RECEPTOR -SLOPE: Schild analysis, NKA, mean (95% confidence limits)
# T2 construct: expressed in transfected cells; host or cells: SKLKB82#3 cells (mouse B82 fibroblasts, own knowledge)
# T2 sequence (P05363 1-384): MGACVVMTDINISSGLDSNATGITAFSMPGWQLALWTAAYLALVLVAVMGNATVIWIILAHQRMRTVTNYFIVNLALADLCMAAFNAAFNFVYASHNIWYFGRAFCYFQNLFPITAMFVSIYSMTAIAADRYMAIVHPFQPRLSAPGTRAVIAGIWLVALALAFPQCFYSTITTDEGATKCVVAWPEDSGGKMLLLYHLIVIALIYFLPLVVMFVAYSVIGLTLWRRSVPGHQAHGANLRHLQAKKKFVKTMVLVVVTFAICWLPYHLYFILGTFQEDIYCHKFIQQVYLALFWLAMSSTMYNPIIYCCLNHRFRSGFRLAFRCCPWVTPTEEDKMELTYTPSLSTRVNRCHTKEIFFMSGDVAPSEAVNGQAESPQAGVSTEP
# Description: Tachykinin-mediated inositol phosphate accumulation was measured in UC11 or SKLKB82#3 cells in the presence and absence of NK1 or NK2 receptor antagonists, respectively. Tissues were incubated in Krebs-Henseleit buffer at 37° C. with 95% O2 -5% CO2 gassing. Tissues were then incubated with fresh buffer containing 100 μCi of myo-[2-^3 H(N)] inositol at 37° C. for 60 min with gentle gassing. After washing twice in 5 ml room temperature buffer containing 10 mM LiCl, tissues were incubated for 30 min at room temperature with a buffer change at 15 min. Buffer was removed and Krebs-Henseleit buffer (containing 40 μg/ml bacitracin, 4 μg/ml each of leupeptin and chymostatin, 0.1% bovine serum albumin and 10 mM each of thiorphan and LiCl) added. After 15 min, SP was added to UC11 cells or NKA to SKLKB82#3 cells at various concentrations to start the reaction. After incubation for 60 min at room temperature the reaction was terminated by addition of 930 μl chloroform:methanol (1:2 by volume) to each tube, followed by 310 μl chloroform and 310 μl doubly distilled water. Samples were vortexed, centrifuged, and 0.9 ml of the aqueous (top) phase removed and added to 2 ml ddH2 O. The mixture was vortexed and loaded onto a 50% Bio-Rad AG 1-X8 (formate form, 100-200 mesh) exchange column (Bio-Rad Laboratories, Hercules, Calif.). The columns were washed, in order, with: 1) 10 ml doubly distilled water, 2) 5 ml of 5 mM disodium tetraborate/60 mM sodium formate, and 3) 5 ml of 1M ammonium formate/0.1M formic acid. The third elution was collected and 1 ml counted in 7 ml scintillation fluid. A 50 μl aliquot of the organic (bottom) phase was removed, dried in a scintillation vial and counted in 7 ml scintillation fluid.
# (§4) The ratio of DPM in the aqueous phase aliquot (total inositol phosphates) to the DPM in the 50 μl organic phase aliquot (total [^3 H]-inositol incorporated) was calculated for each sample. Data are expressed as a percent of agonist-induced accumulation of [^3 H]-inositol phosphates over basal levels. […] Dose-response graphs were constructed and the abilities of the test compounds to inhibit tachykinin-induced phosphatidyinositol turnover determined with the aid of a computer program. […] Data is expressed as percent stimulation of total inositol phosphate accumulation over basal levels and normalized to the maximum response produced by SP. […] Schild analysis is performed using dose response curves (such as those presented in FIGS. 1a and 1b) to obtain a value indicative of the Strength of a competitive antagonist and is expressed as the pA2, which is the negative logarithm of the molar concentration of antagonist which reduces the effect of a dose of agonist to one-half of that expected at the dose of agonist.
# NK1 and NK2 receptors [3] = assay: Antagonism of capsaicin aerosol-induced respiratory effects in conscious guinea pigs, oral; assay type: in vivo, guinea pig; settings: for effect on capsaicin aerosol effects (in words): oral; for SRE NUMBER: coughs/gasps during 19 min capsaicin exposure, mean and SEM
# Description: as §1, §2, §3
# [4] = target: T3, NK1 receptor (UC11 cells) (Homo sapiens, UniProt P25103); assay: Antagonism of NK1 receptor mediated (SP-induced) phosphatidylinositol turnover in UC11 cells; assay type: cell-based
# T3 construct: endogenous in cells; host or cells: UC11 cells
# Description: Tachykinin-mediated inositol phosphate accumulation was measured in UC11 or SKLKB82#3 cells in the presence and absence of NK1 or NK2 receptor antagonists, respectively. Tissues were incubated in Krebs-Henseleit buffer at 37° C. with 95% O2 -5% CO2 gassing. Tissues were then incubated with fresh buffer containing 100 μCi of myo-[2-^3 H(N)] inositol at 37° C. for 60 min with gentle gassing. After washing twice in 5 ml room temperature buffer containing 10 mM LiCl, tissues were incubated for 30 min at room temperature with a buffer change at 15 min. Buffer was removed and Krebs-Henseleit buffer (containing 40 μg/ml bacitracin, 4 μg/ml each of leupeptin and chymostatin, 0.1% bovine serum albumin and 10 mM each of thiorphan and LiCl) added. After 15 min, SP was added to UC11 cells or NKA to SKLKB82#3 cells at various concentrations to start the reaction. […] The third elution was collected and 1 ml counted in 7 ml scintillation fluid. A 50 μl aliquot of the organic (bottom) phase was removed, dried in a scintillation vial and counted in 7 ml scintillation fluid.
# as §4
# T1 sequence (P30547 whole entry): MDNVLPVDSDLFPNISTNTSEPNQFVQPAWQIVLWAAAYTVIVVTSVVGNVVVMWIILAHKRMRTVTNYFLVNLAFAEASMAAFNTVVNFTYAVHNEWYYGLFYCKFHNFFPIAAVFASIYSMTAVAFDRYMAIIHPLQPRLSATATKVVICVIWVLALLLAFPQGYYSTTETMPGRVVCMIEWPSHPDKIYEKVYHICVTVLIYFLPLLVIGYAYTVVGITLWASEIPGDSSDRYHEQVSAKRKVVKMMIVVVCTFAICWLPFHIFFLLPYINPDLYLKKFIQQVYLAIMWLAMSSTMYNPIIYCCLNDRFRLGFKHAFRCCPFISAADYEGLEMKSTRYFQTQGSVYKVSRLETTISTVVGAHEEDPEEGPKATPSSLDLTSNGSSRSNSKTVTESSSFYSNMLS
# T3 sequence (P25103 whole entry): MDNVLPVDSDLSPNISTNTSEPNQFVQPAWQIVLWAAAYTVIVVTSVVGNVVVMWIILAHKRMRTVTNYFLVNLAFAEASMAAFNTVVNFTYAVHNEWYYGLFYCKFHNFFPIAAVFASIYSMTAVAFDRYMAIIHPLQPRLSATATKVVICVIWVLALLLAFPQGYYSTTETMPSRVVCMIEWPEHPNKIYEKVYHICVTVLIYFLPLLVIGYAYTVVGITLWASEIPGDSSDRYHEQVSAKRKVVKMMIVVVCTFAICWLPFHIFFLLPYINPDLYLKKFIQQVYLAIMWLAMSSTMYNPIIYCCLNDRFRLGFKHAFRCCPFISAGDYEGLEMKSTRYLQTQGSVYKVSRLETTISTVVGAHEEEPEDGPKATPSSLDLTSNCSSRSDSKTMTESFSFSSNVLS
SMILES,effect on NKA aerosol respiratory effects (in words) (NK2 receptor),relative potency as NK-1 receptor antagonists (in words) (NK1 receptors),SRE NUMBER (NK1 and NK2 receptors [1]; 10 mg/kg i.v.),effect on capsaicin-induced respiratory effects (in words) (NK1 and NK2 receptors [1]),NK-2 RECEPTOR -SLOPE [2],effect on capsaicin aerosol effects (in words) (NK1 and NK2 receptors [3]),also measured
"COc1cc(C(=O)N2CCC(CCN3CCC(C(N)=O)(c4ccccc4)CC3)(c3ccc(Cl)c(Cl)c3)C2)cc(OC)c1OC.Cl (single isomer, unassigned; (+)) [Example 20A, (+)-1-[2-[3-(3,4-dichloro-phenyl)-1-(3,4,5-trimethoxy-benzoyl)-pyrrolidin-3-yl]-ethyl]-4-phenyl-piperidine-4-carboxylic acid amide hydrochloride]",reduced the effects of NKA aerosol,equipotent,3.3 ± 1.1,attenuate capsaicin-induced respiratory effects,,,SRE NUMBER (NK1 and NK2 receptors [1]; 1 mg/kg i.v.): 9.9 ± 2.7; SRE NUMBER (NK1 and NK2 receptors [1]; 2.5 mg/kg i.v.): 8.3 ± 1.6; SRE NUMBER (NK1 and NK2 receptors [1]; 5 mg/kg i.v.): 4.4 ± 1.9
"COc1cccc(OC)c1C(=O)N1CCC(CCN2CCC(C(N)=O)(c3ccccc3)CC2)(c2ccc(Cl)c(Cl)c2)C1 (stereo not shown) [Example 5A, 1-[2-[3-(3,4-dichloro-phenyl)-1-(2,6-dimethoxy-benzoyl)-pyrrolidin-3-yl]-ethyl]-4-phenyl-piperidine-4-carboxylic acid amide hydrochloride]",reduced the effects of NKA aerosol,,,,,,
"COc1cc(C(=O)N2CCC(CCN3CCC(C(N)=O)(c4ccccc4)CC3)(c3ccc(Cl)c(Cl)c3)C2)cc(OC)c1OC (single isomer, unassigned; (+)) [Example 20]",,,,,1.00,,
COc1cccc(OC)c1C(=O)N1CCC(CCN2CCC(C(N)=O)(c3ccccc3)CC2)(c2ccc(Cl)c(Cl)c2)C1 (stereo not shown) [Example 5],,,,,,antagonize the effects of capsaicin aerosol,
"COc1cc(C(=O)N2CCC(CCN3CCC(C(N)=O)(c4ccccc4)CC3)(c3ccc(Cl)c(Cl)c3)C2)cc(OC)c1OC (stereo not shown) [Example 3, 1-[2-[3-(3,4-dichloro-phenyl)-1-(3,4,5-trimethoxy-benzoyl)-pyrrolidin-3-yl]-ethyl]-4-phenyl-piperidine-4-carboxylic acid amide]",reduced the effects of NKA aerosol,equipotent,,,,,"antagonism of NKA induced PI turnover (in words) ([2]; FIG. 1b): dose related antagonism; agonist activity, PI turnover (in words) ([2]; compound alone): no agonist activity; antagonism of SP-induced plasma protein extravasation (in words) (NK1 receptors; FIG. 2): dose related antagonism; antagonism of SP induced PI turnover (in words) ([4]; FIG. 1a): dose related antagonism; agonist activity, PI turnover (in words) ([4]; compound alone): no agonist activity"
"COc1cc(C(=O)N2CCC(CCN3CCC(C(N)=O)(c4ccccc4)CC3)(c3ccc(Cl)c(Cl)c3)C2)cc(OC)c1OC (racemic) [Example 3A, 1-[2-[3-(3,4-dichloro-phenyl)-1-(3,4,5-trimethoxy-benzoyl)-pyrrolidin-3-yl]-ethyl]-4-phenyl-piperidine-4-carboxylic acid amide hydrochloride]",,,8.50 ± 1.9,attenuate capsaicin-induced respiratory effects,0.73,antagonize the effects of capsaicin aerosol,"SRE NUMBER (NK1 and NK2 receptors [3]; 25 mg/kg oral): 4.6 ± 1.0; SRE NUMBER (NK1 and NK2 receptors [3]; 50 mg/kg oral): 2.8 ± 0.8; SRE NUMBER (NK1 and NK2 receptors [3]; 100 mg/kg oral): 2.1 ± 0.5; NK-1 RECEPTOR -SLOPE ([4]; Schild analysis, SP, mean (95% confidence limits)): 0.90"
